# Activity calls are given as the source filed them. The calls are words filed in the database; no cut-off is given here.
# What was measured:
# [1] = Selectivity index, ratio of HA50 to human RCB to MIC of antifungal activity against Candida tropicalis ATCC 200956; assay type: toxicity; conditions: human red blood cells (RCB)
# Candida duobushaemulonii = test: Antifungal activity against Candida duobushaemulonis CBS 7799 by CLSI standard M27 broth microdilution method; assay type: functional; conditions: Candidozyma duobushaemuli
# [2] = Selectivity index, ratio of CC50 of human HepG2 cells to MIC of antifungal activity against Candida tropicalis ATCC 200956; assay type: toxicity
# [3] = Antifungal activity against Candida pseudohaemulonis CBS 10004 by broth microdilution method; assay type: functional; conditions: Candidozyma pseudohaemuli
# HepG2 = test: Cytotoxicity against human HepG2 cells assessed as reduction in cell viability by XTT assay; assay type: cell-based
# [Candida] auris [4] = Antifungal activity against Candida auris CBS 12766 by CLSI standard M27 broth microdilution method; assay type: functional; conditions: Candidozyma auris
# [Candida] auris [5] = Antifungal activity against Candida auris CBS 10913 by CLSI standard M27 broth microdilution method; assay type: functional; conditions: Candidozyma auris
# Candida tropicalis = test: Antifungal activity against Candida tropicalis ATCC 200956 by CLSI standard M27 broth microdilution method; assay type: functional
# Erythrocyte = test: Hemolytic activity in human RBC by spectrophotometry; assay type: ADME, cell-based
# Aspergillus fumigatus = test: Antifungal activity against Aspergillus fumigatus ATCC 16913 by CLSI standard M38 broth microdilution method; assay type: functional, organism-based
# Aspergillus niger = test: Antifungal activity against Aspergillus niger by CLSI standard M38 broth microdilution method; assay type: functional, organism-based
# Cryptococcus neoformans = test: Fungicidal activity against Cryptococcus neoformans ATCC 208821 assessed as loss of fungal growth by CLSI method; assay type: functional, organism-based
# Cryptococcus gattii = test: Fungicidal activity against Cryptococcus gattii ATCC 56990 assessed as loss of fungal growth by CLSI method; assay type: functional, organism-based; conditions: Cryptococcus bacillisporus
Structure (SMILES),selectivity ratio [1],MIC (Candida duobushaemulonii),selectivity ratio [2],MIC [3],CC50 (HepG2),MIC ([Candida] auris [4]),MIC ([Candida] auris [5]),MIC (Candida tropicalis),Activity (Erythrocyte),inhibition (Aspergillus fumigatus),inhibition (Aspergillus niger),Activity (Cryptococcus neoformans),Activity (Cryptococcus gattii)
CC[C@H](C)C[C@H](C)CCCCCCCCC(=O)N[C@H]1C[C@@H](O)[C@@H](NCCN)NC(=O)[C@@H]2[C@@H](O)CCN2C(=O)[C@H]([C@H](O)CCN)NC(=O)[C@H]([C@H](O)[C@@H](O)c2ccc(O)cc2)NC(=O)[C@@H]2C[C@@H](O)CN2C(=O)[C@H]([C@@H](C)O)NC1=O [CASPOFUNGIN],≥ 16,0.25 µg/mL,16,0.5 µg/mL,32 µg/mL,0.25 µg/mL,0.12 µg/mL,≤ 0.03 µg/mL,–,–,–,–,–
C[C@H]1OC(c2ccc(N=[N+]=[N-])cc2O)=N[C@H]1C(=O)OCc1ccccc1,≥ 128,–,≥ 100,–,100 µg/mL,–,–,≤ 0.03 µg/mL,> 128 µg/mL,–,–,–,–
C[C@H]1OC(c2cc(Br)ccc2O)=N[C@H]1C(=O)OCc1ccccc1,≥ 128,–,≥ 88,–,88 µg/mL,–,–,≤ 0.03 µg/mL,> 128 µg/mL,–,–,–,–
C[C@H]1OC(c2ccc(I)cc2O)=N[C@H]1C(=O)OCc1ccccc1,≥ 128,–,≥ 62,–,62 µg/mL,–,–,≤ 0.03 µg/mL,> 128 µg/mL,–,–,–,–
OC(Cn1cncn1)(Cn1cncn1)c1ccc(F)cc1F [FLUCONAZOLE],≥ 1,> 64 µg/mL,≥ 1,16 µg/mL,> 128 µg/mL,> 0.064 µg/mL,2 µg/mL,1 µg/mL,> 128 µg/mL,–,–,–,–
C[C@@H]1OC(c2cc(Cl)c3ccccc3c2O)=N[C@@H]1C(=O)OC/C=C/c1ccccc1,≥ 8,–,≥ 1,–,10 µg/mL,–,–,≤ 0.03 µg/mL,> 128 µg/mL,–,–,–,–
"C[C@@H]1OC(c2cc(Cl)c3ccccc3c2O)=NC1C(=O)OCc1ccoc1 (single isomer, unassigned)",≥ 32,–,≥ 2,–,6 µg/mL,–,–,≤ 0.03 µg/mL,> 128 µg/mL,–,–,–,–
C[C@@H]1OC(c2cc(Cl)c3ccccc3c2O)=N[C@@H]1C(=O)OC[C@H]1COC(C)(C)O1,≥ 16,–,≥ 1,–,7.2 µg/mL,–,–,≤ 0.03 µg/mL,> 128 µg/mL,–,–,–,–
CCNC(=O)[C@H]1N=C(c2ccc3ccccc3c2O)O[C@H]1C,≥ 128,–,≥ 128,–,> 128 µg/mL,–,–,≤ 0.03 µg/mL,> 128 µg/mL,–,–,–,–
"CCNC(=O)C1N=C(c2cc(Cl)c3ccccc3c2O)O[C@H]1C (single isomer, unassigned)",≥ 128,–,≥ 128,–,–,–,–,0.06 µg/mL,> 128 µg/mL,–,–,–,–
C[C@@H]1[C@H](O)[C@@H](C)/C=C/C=C/C=C/C=C/C=C/C=C/C=C/[C@H](O[C@@H]2O[C@H](C)[C@@H](O)[C@H](N)[C@@H]2O)C[C@@H]2O[C@](O)(C[C@@H](O)C[C@@H](O)[C@H](O)CC[C@@H](O)C[C@@H](O)CC(=O)O[C@H]1C)C[C@H](O)[C@H]2C(=O)O [AMPHOTERICIN B],≥ 68,4 µg/mL,≥ 16,8 µg/mL,4 µg/mL,2 µg/mL,0.5 µg/mL,≤ 0.03 µg/mL,17 µg/mL,–,–,–,–
COC(=O)[C@H]1N=C(c2ccc3ccccc3c2O)O[C@H]1C,≥ 8,–,5,–,84 µg/mL,–,–,0.06 µg/mL,> 128 µg/mL,–,–,–,–
COc1ccc(O)c(C2=N[C@@H](C(=O)OCc3ccccc3)[C@@H](C)O2)c1,≥ 32,–,25,–,100 µg/mL,–,–,≤ 0.03 µg/mL,> 128 µg/mL,–,–,–,–
"COC(=O)C1N=C(c2cc(Cl)c3ccccc3c2O)O[C@H]1C (single isomer, unassigned)",≥ 16,–,1,–,11 µg/mL,–,–,0.25 µg/mL,> 128 µg/mL,–,–,–,–
C[C@H]1OC(c2cc(I)ccc2O)=N[C@H]1C(=O)OCc1ccccc1,≥ 128,–,≥ 64,–,64 µg/mL,–,–,≤ 0.03 µg/mL,> 128 µg/mL,–,–,–,–
C[C@H]1OC(c2cc(F)ccc2O)=N[C@H]1C(=O)OCc1ccccc1,≥ 128,–,≥ 128,–,> 128 µg/mL,–,–,≤ 0.03 µg/mL,> 128 µg/mL,–,–,–,–
C[C@H]1OC(c2ccccc2O)=N[C@H]1C(=O)OCc1ccccc1,≥ 32,–,≥ 26,–,102 µg/mL,–,–,≤ 0.03 µg/mL,> 128 µg/mL,–,–,–,–
"C#CCNC(=O)C1N=C(c2cc(Cl)c3ccccc3c2O)O[C@H]1C (single isomer, unassigned)",≥ 512,–,≥ 132,–,33 µg/mL,–,–,≤ 0.03 µg/mL,> 128 µg/mL,–,–,–,–
C[C@@H]1OC(c2ccc3ccccc3c2O)=N[C@@H]1C(=O)OCc1ccccc1,≥ 256,–,≥ 176,–,88 µg/mL,–,–,≤ 0.03 µg/mL,> 128 µg/mL,–,–,–,–
"C=CCOC(=O)C1N=C(c2cc(Cl)c3ccccc3c2O)O[C@H]1C (single isomer, unassigned)",≥ 128,–,≥ 11,–,11 µg/mL,–,–,≤ 0.03 µg/mL,> 128 µg/mL,–,–,–,–
C[C@H]1OC(c2ccc(Br)cc2O)=N[C@H]1C(=O)OCc1ccccc1,≥ 128,–,62,–,62 µg/mL,–,–,0.06 µg/mL,> 128 µg/mL,–,–,–,–
"C[C@@H]1OC(c2cc(Br)c3ccccc3c2O)=N[C@@H]1C(=O)OCc1ccccc1 (single isomer, unassigned)",≥ 256,–,≥ 18,–,9 µg/mL,–,–,≤ 0.03 µg/mL,> 128 µg/mL,–,–,–,–
COc1cccc(O)c1C1=N[C@@H](C(=O)OCc2ccccc2)[C@@H](C)O1,≥ 8,–,6,–,101 µg/mL,–,–,0.12 µg/mL,> 128 µg/mL,–,–,–,–
"C[C@@H]1OC(c2cc(Cl)c3ccccc3c2O)=NC1C(=O)Nc1ccccc1NC(=O)[C@@H]1N=C(c2cc(Cl)c3ccccc3c2O)O[C@@H]1C (single isomer, unassigned)",≥ 32,–,≥ 23,–,90 µg/mL,–,–,≤ 0.03 µg/mL,> 128 µg/mL,–,–,–,–
C[C@H]1OC(c2ccc(Cl)cc2O)=N[C@H]1C(=O)OCc1ccccc1,≥ 512,0.5 µg/mL,≥ 380,0.25 µg/mL,95 µg/mL,2 µg/mL,0.06 µg/mL,≤ 0.03 µg/mL,> 128 µg/mL,Active,Active,Active,Active
C[C@@H]1OC(c2cc(Cl)c3ccccc3c2O)=N[C@@H]1C(=O)OCc1ccccc1,≥ 64,–,8,–,15 µg/mL,–,–,0.06 µg/mL,> 128 µg/mL,–,–,–,–
C[C@@H](O)[C@H](NC(=O)c1ccc2ccccc2c1O)C(=O)OCc1ccccc1,> 8,–,3,–,40 µg/mL,–,–,8 µg/mL,> 128 µg/mL,–,–,–,–
"C[C@@H]1OC(c2cc(Cl)c3ccccc3c2O)=NC1C(=O)Nc1ccc2ncsc2c1 (single isomer, unassigned)",≥ 1070,0.06 µg/mL,≥ 133,0.03 µg/mL,16 µg/mL,2 µg/mL,0.06 µg/mL,≤ 0.03 µg/mL,> 128 µg/mL,Active,Active,Active,Active

# Source: ChEMBL document CHEMBL4725493, “Novel 2-Aryloxazoline Compounds Exhibit an Inhibitory Effect on Candida spp., Including Antifungal-Resistant Isolates” (ACS Med Chem Lett, 2020)
